Assay results reported in patent publication US8895555B2, “Methods of treating intestinal diseases and inflammatory conditions related to HIV-AIDS” (Bach Pharma, Inc., priority 2009, dated 2014).
Read-outs that look alike come from different tables or passages of the source.

Experiments:
[1] = tested on: ts1 virus, a mutant of MoMuLV; conditions: mouse, in vivo
Excerpt: GVT® (sodium a-luminol) was provided by Bach-Pharma, Inc., North Andover, Mass. Goat anti-MoMuLV gp70 was from Microbiology Associates, Burlingame, Calif. (this antibody recognizes epitopes shared by the mature gp70 viral envelope protein and the precursor preprotein gPr80^env). Anti-mouse Ki67 was from Vector Laboratories, Burlingame, Calif. Polyclonal and monoclonal anti-mouse TSHI3 were from Cell Signaling (Boston, Mass.) and Dr. John R. Klein's laboratory, respectively. Mand rabbit anti-activated caspase-3 was from Cell Signaling. Mouse monoclonal anti Nrf2 was from R&D systems (Minneapolis, Minn.). FITC and Texas Red-conjugated anti-mouse, rat, rabbit and goat antibodies were from Jackson ImmunoResearch (West Grove, Pa.).
FVB/N mice were obtained from Taconic Farms (Germantown, N.Y.). Breeding FVB/N pairs were housed in sterilized microisolator cages and supplied with autoclaved feed and water ad libitum. The microisolators were kept in an environmentally controlled isolation room. For ts1 infection, four-day-old mice were inoculated intraperitoneally with 0.1 ml of vehicle (mock infection) or with 0.1 ml of a ts1 suspension containing 2×107 infectious units/ml.
For GVT treatment, animals from the control and ts1-infected groups are divided into two groups each […]. The infected mice are then divided again into two groups, one of whose individuals received 0.9% normal saline, intraperitoneally, five continuous days a week, followed by two resting days, until the end of the experiment. At the same time, mice from the other half of the infected animals received freshly prepared GVT, delivered intraperitoneally at 200 mg/kg body weight/day in 0.9% normal saline. The uninfected mice were also divided into two groups, one receiving saline alone, and the other receiving GVT as described above.
At 30 dpi, mice from all groups were sacrificed, and their small intestines (2 cm from the jejunum) processed for Western blotting of the tissues or for frozen section immunohistochemistry. All mice were observed daily for clinical signs of disease, and individuals from all groups were sacrificed at 30 dpi. Intestinal tissues to be used for Western blotting are removed, snap-frozen in liquid nitrogen and stored at −80° C. until use. For immunohistochemistry, intestine segments were snap-frozen in liquid nitrogen in OCT embedding compound. These animal protocols were approved by The University of Texas M.D. Anderson Cancer Center Institutional Animal Care and Use Committee.
Western blotting analysis was performed as described previously. Briefly, whole cell protein was extracted from whole intestines in radioimmunoprecipitation assay buffer (NP40, 0.5% sodium deoxycholate, 0.1% sodium dodecyl sulfate, 0.25 mM phenylmethylsulfonylfluoride, 1 mg/ml aprotinin, leupeptin, and pepstatin A, 1 mM sodium orthovanadate, and 1 mM sodium fluoride in phosphate-buffered saline, or PBS). Protein concentrations were measured using the Bio-Rad Dc protein assay reagent (Bio Rad Laboratories, Hercules, Calif.) as per the manufacturer's instructions. These lysates ([…] total protein per sample) were electrophoresed on 10% SDS-PAGE gels, and then transferred to polyvinylidene difluoride membranes (Millipore Corp, Bedford, Mass.). The membranes were blocked at room temperature for 1 hr in iris-buffered saline, or TBS, with 5% nonfat milk, and incubated with unconjugated primary antibody for 2 hrs, followed by 3 washes with TBS. The blots were then incubated with species-appropriate horseradish peroxidase-conjugated secondary antibody for an additional 1 hr. After three washes, immune complexes were detected by chemiluminescence (NEN Life Science Products, Boston, Mass.). A monoclonal anti-13-actin antibody (Sigma, St. Louis, Mo.) was used as a loading control. Values calculated as the ratio of their normalized values against this number.

ts1 virus = conditions: for disease course: T cell loss, thymic atrophy, wasting, death: ts1-infected mice treated with GVT
Excerpt: GVT® (monosodium luminol) was provided by Bach-Pharma, Inc., North Andover, Mass. Goat anti-MoMuLV gp70 was from Microbiology Associates, Burlingame, Calif. This antibody recognizes epitopes shared by the mature gp70 viral envelope protein and the precursor preprotein gPr80^env Monoclonal rabbit anti-cleaved caspase-3 was from Cell Signaling (Boston, Mass.). Mouse monoclonal anti-Nrf2 was from R&D systems (Minneapolis, Minn.). Polyclonal anticytokeratin-5 (CK5) and monoclonal anti-cytokeratin-8 (CK8) antibodies were from Covance Research (Richmond, Calif.) and the National Institutes of Health Developmental Studies Hybridoma Bank (Iowa City, Iowa), respectively. F1TC and Texas Red conjugated anti-mouse, rat, rabbit and goat antibodies were from Jackson ImmunoResearch (West Grove, Pa.).
5 (and 6)-chloromethyl-2′,7′-dichlorodihydrofluorescein diacetate (CM-H2DCFDA; Molecular Probes, Eugene, Oreg.; hereafter called DCFDA), is a cell-permeant indicator for intracellular ROS, including hydrogen peroxide and superoxide. The dye itself is non-fluorescent, but when its acetate groups are removed by intracellular esterases, it is oxidized to form a highly fluorescent derivative, carboxydichlorofluorescein. Freshly isolated thymocytes were prepared from uninfected, GVT-only, ts1-only and ts1-GVT-treated mice, at 30 dpi. The thymocytes were incubated with […] of DCFDA, in culture medium (RPMI 1640) at 37° C. for 30 mm. After this loading period, the cells were washed twice with PBS, lysed, and the fluorescence of their contents measured using a Synergy HT multi-detection microplate reader (BioTek Instruments, Inc., Winoski, Vt.). The data are expressed as means±standard deviation (SD) of relative fluorescence units (against a standard curve) for DCFDA-loaded thymocyte lysates for three mice of each treatment group (See FIG. 16).
FVB/N mice were obtained from Taconic Farms (Germantown, N.Y.). Breeding FVB/N pairs were housed in sterilized microisolator cages and supplied with autoclaved feed and water ad libitum. The microisolators were kept in an environmentally controlled isolation room. For ts1 infection, 4-day-old mice were inoculated intraperitoneally with 0.1 ml of vehicle (mock infection) or with 0.1 ml of a ts1 suspension containing 2×107 infectious units/ml. […] For GVT treatment, animals from the control and ts1 infected groups were divided into two groups each on the day of infection. Infected mice were then divided again into two groups, one of whose individuals received 0.9% normal saline, intraperitoneally, for five continuous days-a-week, followed by two resting days, until the end of the experiment, while the other half of the infected animals received freshly prepared GVT, delivered intraperitoneally at 200 mg/kg body weight/day in 0.9% normal saline. The uninfected mice were also divided into two groups, one receiving saline alone, and the other receiving GVT as described above. […] All mice were observed daily for clinical signs of disease, and the mice from all groups were sacrificed at 30 dpi.
Whole thymi that were to be used for Western blotting were removed, snap frozen in liquid nitrogen and stored at −80° C. until use. For immunohistochemistry, thymi were snap-frozen in liquid nitrogen in Optimal Cutting Temperature (OCT) embedding compound (Sakura Finetek USA, Torrance, Calif.). These experimental protocols were approved by The University of Texas M.D. Anderson Cancer Center's Institutional Animal Care and Use Committee. […]

[2] = tested on: acute intestine infections of different nature
Method: Clinical tests were performed on 56 patients suffering from acute intestine infections of different nature, accompanied by intoxication syndrome and diarrhea. All 56 patients had similar clinical manifestations, form and seriousness of the disease. The drug was prescribed to be used according to the following protocol: initial dose, 200 mg intramuscularly; then 3 hours later, a dose of 100 mg; and 3 hours later, a dose of 100 mg (400 mg per day).
In anamnesis of all patients no data of non-endurance or allergic reactions to any remedies was stated. GVT was administered to 54 patients within first hours after admission, before the application of traditional treatment methods, i.e., water-crystalloid solutions, vitamins, spasmolytics, as by acute dysentery and salmonellosis—antibacterial therapy.

[3] = tested on: MT-4 cells (HIV-infected or uninfected)
Method: HIV-1 infection of cultured T lymphoblastoid cells (MT4) causes a dramatic increase in intracellular ROS, and this is associated with cell death.
GVT was added to the cell culture every day for all six days of culture. HIV causes apoptosis of MT-4 cells, measurable when the cells are harvested at 6 dpi.

[4] = tested on: H9 cells (HIV-infected or uninfected)
[5] = GVT intramuscularly, 400 mg per day

Nc1cccc2c(=O)[n-][nH]c(=O)c12.[Na+] [GVT, monosodium luminol]
CD4-positive cells in the LP of intestinal villi [1]: present in the LP of villi
Ki67 staining pattern (cell cycling) of intestinal epithelium [1]: limited to the crypts
Nrf2 in intestinal epithelial cells (immunostaining) [1]: heavy loading with Nrf2
Nrf2 levels in intestinal tissues (Western blot) [1]: significantly upregulated
TSH expression pattern along crypt-villus axis (immunostaining) [1]: limited to the crypts
TSH level in intestinal lysates (Western blot) [1]: what appear to be normal TSH levels
cleaved caspase-3 in intestines (Western blot) [1]: absent
gPr80env accumulation in intestinal lysate (anti-gp70 Western blot) [1]: only gp70 was present
crypt-villus organization of small intestine (H&E and gp70 staining) ([1]; ip, 200 mg/kg/day): apparently normal crypt-villus organization
Nrf2-positive cells in thymic sections (gp70/Nrf2 double staining) (ts1 virus; ts1-GVT mice, 30 dpi): large numbers of red cellular profiles (Nrf2-positive only)
thymic corticomedullary organization (H&E) (ts1 virus; ts1-GVT mice, 30 dpi): normal corticomedullary organization
thymus weight (ts1 virus; ts1-GVT mice, 30 dpi): no thymic weight loss
disease course: T cell loss, thymic atrophy, wasting, death (ts1 virus): delayed T cell loss and thymic atrophy for many weeks
disease course: T cell loss, thymic atrophy, wasting, death (ts1 virus; listed as monosodium luminol): significantly delays thymic atrophy, wasting, and death
patients with body temperature normalized on the 1st or 2nd day of treatment ([2]; 53 patients of 56): 94.6%
general weakness [2, 5]: disappeared on the 3rd day
time to positive effect [2, 5]: ≤ 24 h
intoxication ([2]; GVT intramuscularly, 400 mg per day, majority of patients): decrease in intoxication on the 1st and 2nd days
viability of uninfected MT-4 cells ([3]; GVT added every day for 6 days of culture): increases the viability of uninfected cells
apoptosis of HIV-infected MT-4 cells ([3]; GVT added every day for 6 days, harvested at 6 dpi): significantly reduces apoptosis
survival of HIV-infected MT4 cells ([3]; HIV-1 infected, GVT-treated): the infected cells survive
Nrf2 levels in MT-4 cells ([3]; days 1-6 dpi, infected or not): an increase
viability of uninfected MT-4 cells ([3]; single dose on day 1): no effect on their viability
effect on uninfected MT-4 cells (proliferation) ([3]; uninfected, FIG. 9): mitogenic
ROS in uninfected H9 cells [4]: does not dramatically reduce ROS
